Reference: paper PMC10087074 (Clinical and Translational Science, 2023)
Like-named read-outs stand apart in the source and are kept apart here.

Experiments:
[1] = tested on: plasma protein; conditions: cited from earlier work
[2] = tested on: plasma protein; conditions: cited from earlier work; remark: listed apart in the source
[3] = Population PK of trazodone and gabapentin as single agents in mice; format: in vivo; conditions: for D 1 (duration of the zero‐order absorption) / k 12 (intercompartment rate constant) / k 21 (intercompartment rate constant): male mice, fasting, population PK estimate; for Inter‐individual variability ω2 of V / Inter‐individual variability ω2 of k / Inter‐individual variability ω2 of k12: mice, population PK variance estimate; for Vd/F / k el: male, mouse, plasma
[4] = tested on: acetic acid‐induced writhings in male CD‐1 mice; experiment: Acetic acid‐induced writhing test in mice with PK/PD model; conditions: for interindividual variability in the k 2, percent coefficient of variation: single‐agent model
[5] = tested on: thermal hyperalgesia in CCI rat model; conditions: cited from earlier work
[6] = tested on: patients with diabetes with peripheral neuropathy / painful distal symmetrical polyneuropathy; conditions: cited from earlier work
[7] = gabapentin 10, 30 and 100 mg/kg
[8] = combination model, interaction (synergism), trazodone‐gabapentin 0.075–1.5, 0.15–1.5 mg/kg
[9] = combination model, pure additivity, trazodone‐gabapentin 0.075–1.5, 0.15–1.5 mg/kg
[10] = combination model, pure additivity, trazodone‐gabapentin 0.5–5, 1.5–15 mg/kg
[11] = single model, gabapentin i.p. 1.5, 5 and 15 mg/kg
[12] = 31 patients, oral trazodone 50 or 100 mg/day for 2 weeks

NCC1(CC(=O)O)CCCCC1 [Gabapentin]
plasma protein binding ([1]; mice): not protein‐bound | plasma protein binding ([2]; humans): not protein‐bound | D 1 (duration of the zero‐order absorption) [3, 7]: 0.167 h | k 12 (intercompartment rate constant) [3, 7]: 0.935 h⁻¹ | k 21 (intercompartment rate constant) [3, 7]: 0.110 h⁻¹ | Inter‐individual variability ω2 of V [3, 7]: 0.00287 | Inter‐individual variability ω2 of k [3, 7]: 0.337 | Inter‐individual variability ω2 of k12 [3, 7]: 1.43 | Vd/F ([3]; 100 mg/kg): 0.846 L/kg | k el ([3]; 100 mg/kg): 3.11e-05 s⁻¹ | Interindividual variance ω2 of k2 [4, 8]: 1.78 | k 2 (potency parameter) [4, 8]: 817 M⁻¹ s⁻¹ | Interindividual variability ω2 of k2 [4, 9]: 1.67 | k 2 (potency parameter) [4, 9]: 1350 M⁻¹ s⁻¹ | Interindividual variability ω2 of k2 [4, 10]: 1.71 | k 2 (potency parameter) [4, 10]: 667 M⁻¹ s⁻¹ | antinociceptive effect (number of writhes vs vehicle) ([4]; gabapentin alone 1.5 mg/kg i.p.): ineffective | antinociceptive effect (number of writhes vs vehicle) ([4]; gabapentin alone 5 or 15 mg/kg i.p., p < 0.001): significant reduction of the writhes number | Interindividual variability ω2 of k2 [4, 11]: 1.97 | k 2 (potency parameter) [4, 11]: 765 M⁻¹ s⁻¹ | interindividual variability in the k 2, percent coefficient of variation [4]: 140

O=c1n(CCCN2CCN(c3cccc(Cl)c3)CC2)nc2ccccn12 [Trazodone]
plasma protein binding ([1]; mouse, ref internal unpublished data): 89% | effect on thermal hyperalgesia [5]: dose‐dependent analgesic effect | plasma protein binding ([2]; human, ref internal unpublished data): 97% | Vd/F ([3]; 10 mg/kg): 5.95 L/kg | k el ([3]; 10 mg/kg): 0.000347 s⁻¹ | D 1 (duration of the zero‐order absorption) ([3]; trazodone 1, 3 and 10 mg/kg): 0.0833 h | k 12 (intercompartment rate constant) ([3]; trazodone 1, 3 and 10 mg/kg): 0.982 h⁻¹ | k 21 (intercompartment rate constant) ([3]; trazodone 1, 3 and 10 mg/kg): 1.51 h⁻¹ | Inter‐individual variability ω2 of V ([3]; trazodone 1, 3 and 10 mg/kg): 0.0526 | Inter‐individual variability ω2 of k ([3]; trazodone 1, 3 and 10 mg/kg): 0.00899 | Inter‐individual variability ω2 of k12 ([3]; trazodone 1, 3 and 10 mg/kg): 0.577 | patients who experienced complete relief [6, 12]: 22.6% | patients who experienced symptomatic relief [6, 12]: 61.3% | effect on pain and numbness ([6]; six patients with diabetes affected by peripheral neuropathy, 100 mg/day): good effect in pain relief and numbness | Interindividual variance ω2 of k2 [4, 8]: 1.42 | k 2 (potency parameter) [4, 8]: 182000 M⁻¹ s⁻¹ | Interindividual variability ω2 of k2 [4, 9]: 1.43 | k 2 (potency parameter) [4, 9]: 212000 M⁻¹ s⁻¹ | Interindividual variability ω2 of k2 [4, 10]: 1.40 | k 2 (potency parameter) [4, 10]: 170000 M⁻¹ s⁻¹ | k 2 (potency parameter) ([4]; single model, trazodone o.s. 0.075, 0.15, 0.5, 1.5, 2.5 and 4.5 mg/kg): 182000 M⁻¹ s⁻¹ | Interindividual variability ω2 of k2 ([4]; single model, trazodone o.s. 0.075-4.5 mg/kg): 1.42 | interindividual variability in the k 2, percent coefficient of variation [4]: 119 | antinociceptive effect (number of writhes vs vehicle) ([4]; trazodone alone 0.075 or 0.15 mg/kg o.s.): ineffective | antinociceptive effect (number of writhes vs vehicle) ([4]; trazodone alone 0.5 or 1.5 mg/kg o.s., p < 0.001): significant reduction of the writhes number
